Measurements as given in patent publication US9815832B2 (priority 2013, dated 2017).
pIC50: −log10 of the molar value. Counter-ions that a name gives are not always drawn.

molecular target: human recombinant PDE4B (Homo sapiens (Human), UniProt Q07343, S133E/S654A/S659A/S661A); details: read-out: Human PDE4B FL
Sequence (Q07343 122-736 S133E/S654A/S659A/S661A): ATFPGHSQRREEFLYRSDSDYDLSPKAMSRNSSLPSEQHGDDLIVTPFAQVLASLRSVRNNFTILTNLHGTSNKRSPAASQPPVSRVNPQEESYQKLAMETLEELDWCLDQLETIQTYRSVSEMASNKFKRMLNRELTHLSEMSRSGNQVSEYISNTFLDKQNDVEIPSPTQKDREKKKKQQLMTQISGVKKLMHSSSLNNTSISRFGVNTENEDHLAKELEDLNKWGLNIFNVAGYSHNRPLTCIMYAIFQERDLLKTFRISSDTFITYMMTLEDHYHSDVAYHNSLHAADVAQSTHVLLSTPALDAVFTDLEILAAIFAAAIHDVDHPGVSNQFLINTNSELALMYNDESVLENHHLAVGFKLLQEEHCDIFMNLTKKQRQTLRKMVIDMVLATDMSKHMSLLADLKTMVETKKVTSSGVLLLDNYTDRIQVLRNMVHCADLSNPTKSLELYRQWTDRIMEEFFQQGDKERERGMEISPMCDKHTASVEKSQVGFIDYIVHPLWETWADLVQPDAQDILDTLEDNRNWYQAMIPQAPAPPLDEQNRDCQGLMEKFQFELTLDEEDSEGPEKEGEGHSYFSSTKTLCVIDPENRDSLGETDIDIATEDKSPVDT
Procedure: Reactions are incubated for 30 min at 25° C. The addition of 20 μL of 8 mg/mL yitrium silicate SPA beads (PerkinElmer) stops the reaction. The plates are sealed (TopSeal, PerkinElmer) and the beads are allowed to settle for 8 hrs, after which they are read on the Trilux Microbeta overnight.

Question: With O=C(NC1CC1)c1nc2cccnc2n1-c1cccc(Cl)c1F [Example 78, 3-(3-Chloro-2-fluorophenyl)-N-cyclopropyl-3H-imidazo[4,5-b]pyridine-2-carboxamide, trifluoroacetate salt] as the compound, how does the pIC50 read?
Answer: 6.41

Question: O=C(NC1CC1)c1nc2cccnc2n1-c1ccc2ncccc2c1 [Example 80, N-Cyclopropyl-3-(quinolin-6-yl)-3H-imidazo[4,5-b]pyridine-2-carboxamide, trifluoroacetate salt] was tested. Which pIC50 did it give?
Answer: 5.83

Question: With CCNC(=O)c1nc2cccnc2n1-c1cncc(Cl)c1 [Example 81, 3-(5-Chloropyridin-3-yl)-N-ethyl-3H-imidazo[4,5-b]pyridine-2-carboxamide] as the compound, how does the pIC50 read?
Answer: 5.08

Question: O=C(NC1CC1)c1nc2cccnc2n1-c1ccnc(C(F)(F)F)c1 [Example 82, N-Cyclopropyl-3-[2-(trifluoromethyl)pyridin-4-yl]-3H-imidazo[4,5-b]pyridine-2-carboxamide] was tested. Which pIC50 did it give?
Answer: 5.22

Question: With COc1cncc(-n2c(C(=O)NC3CC3)nc3cccnc32)c1 [Example 83, N-Cyclopropyl-3-(5-methoxypyridin-3-yl)-3H-imidazo[4,5-b]pyridine-2-carboxamide] as the compound, how does the pIC50 read?
Answer: 4.87

Question: Cc1cc(-n2c(C(=O)NC3CC3)nc3cccnc32)c(Cl)cc1F [Example 84, 3-(2-Chloro-4-fluoro-5-methylphenyl)-N-cyclopropyl-3H-imidazo[4,5-b]pyridine-2-carboxamide] was tested. Which pIC50 did it give?
Answer: 4.78

Question: With Cc1ccc(-n2c(C(=O)NC3CC3)nc3cccnc32)cn1 [Example 85, N-Cyclopropyl-3-(6-methylpyridin-3-yl)-3H-imidazo[4,5-b]pyridine-2-carboxamide] as the compound, how does the pIC50 read?
Answer: 5.11

Question: With Cn1ncc2ccc(-n3c(C(=O)NC4CC4)nc4cccnc43)cc21 [Example 86, N-Cyclopropyl-3-(1-methyl-1H-indazol-6-yl)-3H-imidazo[4,5-b]pyridine-2-carboxamide] as the compound, how does the pIC50 read?
Answer: 4.61

Question: COc1ccc(-n2c(C(=O)NC3CC3)nc3cccnc32)cc1OC [Example 87, N-Cyclopropyl-3-(3,4-dimethoxyphenyl)-3H-imidazo[4,5-b]pyridine-2-carboxamide] was tested. Which pIC50 did it give?
Answer: 5.57

Question: Cc1ccc(-n2c(C(=O)NC3CC3)nc3cccnc32)c(Cl)c1 [Example 88, 3-(2-Chloro-4-methylphenyl)-N-cyclopropyl-3H-imidazo[4,5-b]pyridine-2-carboxamide] was tested. Which pIC50 did it give?
Answer: 5.43

Question: With COc1ccc(-n2c(C(=O)NC3CC3)nc3cccnc32)c(C)c1 [Example 89, N-Cyclopropyl-3-(4-methoxy-2-methylphenyl)-3H-imidazo[4,5-b]pyridine-2-carboxamide] as the compound, how does the pIC50 read?
Answer: 5.45

Question: O=C(NC1CC1)c1nc2cccnc2n1-c1cc(F)ccc1Cl [Example 90, 3-(2-Chloro-5-fluorophenyl)-N-cyclopropyl-3H-imidazo[4,5-b]pyridine-2-carboxamide] was tested. Which pIC50 did it give?
Answer: 5.03

Question: Cc1ccc(Cl)c(-n2c(C(=O)NC3CC3)nc3cccnc32)c1 [Example 91, 3-(2-Chloro-5-methylphenyl)-N-cyclopropyl-3H-imidazo[4,5-b]pyridine-2-carboxamide] was tested. Which pIC50 did it give?
Answer: 5.03

Question: With O=C(NC1CC1)c1nc2cccnc2n1-c1ccc(C(F)(F)F)cc1 [Example 92, N-Cyclopropyl-3-[4-(trifluoromethyl)phenyl]-3H-imidazo[4,5-b]pyridine-2-carboxamide] as the compound, how does the pIC50 read?
Answer: 5.51
